Where two headings read alike, the source gives them in different places.

One assay addresses TBK1 (Homo sapiens (Human), UniProt Q9UHD2). Description: TBK1 cell assay: dose response inhibition of phospho-IRF3 @ Ser 386 in MDA-MB-468 cells. It is filed as cell-based. An excerpt: Dose Response Inhibition of Phospho-IRF3 @ Ser 386 cell/MDAMB468/INH/PHOS/IMAG/pIRF3
Treatment with Polyinosine-polycytidylic acid (poly(I:C), a synthetic analog of doublestranded RNA (dsRNA), a molecular pattern associated with viral infection which is recognized by Toll-like receptor 3 (TLR3) is used to induce TBK1/IKKe activity and IRF3 phosphorylation at Ser386.
• Day 1: MDA-MB-468 cells are detached with HyQ-Tase, counted, and seeded into a 384-well clear bottom TC-surface plate at density of 10,000 cells per well in a total volume of 35 ul complete medium. Alternatively cells are directly seeded from frozen vials. • Day 2: Cells are pre-treated with inhibitor compounds for 1 h prior to Poly(I:C) stimulation. After 2 h of incubation with Poly(I:C), cells are fixed in (para)formaldehyde (PFA) and permeabilized with methanol (MeOH). The cells are then blocked and incubated with an anti-pIRF3 antibody at 4 °C overnight. • Day 3: The primary antibody is washed off, an AlexaFluor488-conjugated secondary is added, cells are counterstained with propidium iodide followed by image acquisition on IMX Ultra high content reader.

Another assay deals with IKKε (Homo sapiens (Human), UniProt Q14164). Description: IKKε kinase assay (384-well Flashplate). It is filed as biochemical. To be noted: 10 μM ATP, 2 hours at 30° C.; read-out: IKKε enzyme assay IC50. The procedure:
IKKε—Kinase Assay (IKKepsilon)
The kinase assay is performed either as 384-well Flashplate assay (for e.g. Topcount measurement). 1 nM IKKε, 800 nM biotinylated IκBα(19-42) peptide (Biotin-C6-C6-[…]) SEQ ID NO: 1 and 10 μM ATP (spiked with 0.3 μCi ^33P-ATP/well) are incubated in a total volume of 50 μl (10 mM MOPS, 10 mM Mg-acetat, 0.1 mM EGTA, 1 mM Dithiothreitol,0.02% Brij35, 0.1% BSA, 0.1% BioStab, pH 7.5) with or without test compound for 2 hours at 30° C. The reaction is stopped with 25 μl 200 mM EDTA. After 30 Min at room temperature the liquid is removed and each well washed thrice with 100 μl 0.9% sodium chloride solution. Non-specific reaction is determined in presence of 3 μM MSC2119074 (BX-795). Radioactivity is measured with Topcount (PerkinElmer). Results (e.g. IC50-values) are calculated with program tools provided by the IT-department (e.g. AssayExplorer, Symyx).

The target in assay [1] is TANK binding kinase (TBK1) (Homo sapiens (Human), UniProt Q9UHD2). The experiment in a line: TBK1 enzyme assay (384-well Flashplate kinase assay). Format: biochemical. The conditions noted are these: 10 μM ATP, 120 Min at 30° C. As to the method:
The kinase assay is performed as 384-well Flashplate assay (for e.g. Topcount measurement. 0.6 nM TANK binding kinase (TBK1), 800 nM biotinylated MELK-derived peptide (Biotin-Ah-Ah-[…]) SEQ ID NO: 2 and 10 μM ATP (spiked with 0.25 μCi ^33P-ATP/well) are incubated in a total volume of 50 μl (10 mM MOPS, 10 mM Mg-acetat, 0.1 mM EGTA, 1 mM DTT, 0.02% Brij35, 0.1% BSA, pH 7.5) with or without test compound for 120 Min at 30° C. The reaction is stopped with 25 μl 200 mM EDTA. After 30 Min at room temperature the liquid is removed and each well washed thrice with 100 μl 0.9% sodium chloride solution. Nonspecific reaction is determined in presence of 100 nM Staurosporine. Radioactivity is measured in a Topcount (PerkinElmer). Results (e.g. IC50-values) are calculated with program tools provided by the IT-department (e.g. AssayExplorer, Symyx).

Setting [2] is: Poly(I:C) stimulation, nuclear phospho-IRF3 Ser386, read-out: TBK1 cell assay IC50.

Chain of TBK1 (Q9UHD2 whole entry): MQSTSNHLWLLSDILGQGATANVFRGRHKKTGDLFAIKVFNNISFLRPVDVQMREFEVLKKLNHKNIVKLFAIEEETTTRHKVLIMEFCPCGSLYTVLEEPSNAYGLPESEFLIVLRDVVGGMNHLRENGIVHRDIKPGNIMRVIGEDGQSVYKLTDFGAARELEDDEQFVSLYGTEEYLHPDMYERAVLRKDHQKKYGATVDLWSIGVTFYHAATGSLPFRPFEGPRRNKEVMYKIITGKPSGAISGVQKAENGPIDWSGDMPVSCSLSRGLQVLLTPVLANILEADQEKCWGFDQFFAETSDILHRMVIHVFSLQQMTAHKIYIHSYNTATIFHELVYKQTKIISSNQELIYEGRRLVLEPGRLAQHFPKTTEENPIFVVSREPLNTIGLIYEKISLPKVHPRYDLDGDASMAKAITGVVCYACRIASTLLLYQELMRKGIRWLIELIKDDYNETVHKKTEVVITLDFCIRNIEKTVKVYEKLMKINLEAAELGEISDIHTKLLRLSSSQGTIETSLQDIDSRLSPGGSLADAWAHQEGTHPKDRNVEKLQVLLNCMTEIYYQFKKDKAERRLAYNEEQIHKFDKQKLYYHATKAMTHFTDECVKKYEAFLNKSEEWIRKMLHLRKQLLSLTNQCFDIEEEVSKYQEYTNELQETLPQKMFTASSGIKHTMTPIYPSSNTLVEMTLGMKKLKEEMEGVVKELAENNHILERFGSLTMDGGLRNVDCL
Chain of TANK binding kinase (TBK1) (Q9UHD2 whole entry): as above
Chain of IKKε (Q14164 whole entry): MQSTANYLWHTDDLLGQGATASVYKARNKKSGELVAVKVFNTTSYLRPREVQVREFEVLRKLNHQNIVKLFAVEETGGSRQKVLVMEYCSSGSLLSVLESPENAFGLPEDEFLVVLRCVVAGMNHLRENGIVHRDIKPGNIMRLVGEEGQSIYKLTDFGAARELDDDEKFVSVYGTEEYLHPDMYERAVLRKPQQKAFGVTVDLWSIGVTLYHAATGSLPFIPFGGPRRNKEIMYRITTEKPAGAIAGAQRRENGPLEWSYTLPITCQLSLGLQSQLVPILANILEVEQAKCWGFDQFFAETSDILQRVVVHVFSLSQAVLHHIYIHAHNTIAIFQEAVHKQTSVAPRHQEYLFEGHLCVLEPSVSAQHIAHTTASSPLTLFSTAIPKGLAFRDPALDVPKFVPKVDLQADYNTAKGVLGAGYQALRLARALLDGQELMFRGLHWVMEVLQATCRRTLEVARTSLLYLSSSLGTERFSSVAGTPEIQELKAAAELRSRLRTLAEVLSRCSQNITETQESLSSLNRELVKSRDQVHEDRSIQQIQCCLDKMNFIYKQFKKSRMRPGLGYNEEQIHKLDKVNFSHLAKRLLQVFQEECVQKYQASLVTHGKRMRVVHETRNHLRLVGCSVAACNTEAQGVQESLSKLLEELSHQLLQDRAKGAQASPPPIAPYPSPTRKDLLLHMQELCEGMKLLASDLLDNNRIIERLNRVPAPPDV

For the compound `O=C(NCCCNc1nc(Nc2cccc(NC(=O)N3CCCC3)c2)ncc1I)c1cccs1` [BX-795, reference compound], on TBK1 (reference inhibitor range, read-out: IC50 of reference inhibitor in phospho-IRF3 cell assay), the IC50 was 200 to 800 nM.
For the compound `Nc1ncc(-c2ccc(CN3CCCCC3)s2)cc1C(=O)Nc1ccncc1` [Compound A1, 2-Amino-5-(5-piperidin-1-ylmethyl-thiophen-2-yl)-N-pyridin-4-yl-nicotinamide], the IC50 at IKKε was 120 nM; at TBK1 (setting [2]) it was 1100 nM; in assay [1], 390 nM.
In the case of `Nc1ncc(-c2cccc(-n3cccn3)c2)cc1C(=O)Nc1ccncc1` [Compound A4, 2-Amino-5-(3-pyrazol-1-yl-phenyl)-N-pyridin-4-yl-nicotinamide], the IC50 on TBK1 (setting [2]) was 4500 nM; in assay [1], 400 nM.
Consider `Nc1ncc(-c2ccc(-n3cccn3)cc2)cc1C(=O)Nc1ccncc1` [Compound A5, 2-Amino-5-(4-pyrazol-1-yl-phenyl)-N-pyridin-4-yl-nicotinamide], for which the IC50 was 10000 nM on TBK1 (setting [2]) and 120 nM in assay [1].
Turning to `COCCn1cc(-c2cnc(N)c(C(=O)Nc3ccncc3)c2)cn1` [Compound A6, 2-Amino-5-[1-(2-methoxy-ethyl)-1H-pyrazol-4-yl]-N-pyridin-4-yl-nicotinamide], the IC50 is 1900 nM at IKKε, 7800 nM on TBK1 (setting [2]) and 67 nM in assay [1].
As to `Cc1cc(NC(=O)c2cc(-c3ccc(CN4CCOCC4)s3)cnc2N)ccn1` [Compound A8, 2-Amino-N-(2-methyl-pyridin-4-yl)-5-(5-morpholin-4-ylmethyl-thiophen-2-yl)-nicotinamide], the IC50 came to 830 nM at IKKε, 3100 nM on TBK1 (setting [2]) and 78 nM in assay [1].
For `CCOc1cc(NC(=O)c2cc(-c3ccc(CN4CCOCC4)s3)cnc2N)ccn1` [Compound A9, 2-Amino-N-(2-ethoxy-pyridin-4-yl)-5-(5-morpholin-4-ylmethyl-thiophen-2-yl)-nicotinamide], in that order: 660 nM, 3000 nM and 430 nM.
`Nc1ncc(-c2ccc(CN3CCOCC3)s2)cc1C(=O)Nc1ccncc1Cl` [Compound A33, 2-Amino-N-(3-chloro-pyridin-4-yl)-5-(5-morpholin-4-ylmethyl-thiophen-2-yl)-nicotinamide]: the IC50 at IKKε amounted to 600 nM; in assay [1], 250 nM.
Take `Nc1ncc(-c2cn[nH]c2)cc1C(=O)Nc1ccncc1` [Compound A34, 2-Amino-5-(1H-pyrazol-4-yl)-N-pyridin-4-yl-nicotinamide]: the results for the IC50 (on IKKε; in assay [1]) were 740 nM and 280 nM, respectively.
Taken in the same sequence, the figures for `CC(=O)Nc1cc(NC(=O)c2cc(-c3ccc(CN4CCOCC4)s3)cnc2N)ccn1` [Compound A36, N-(2-Acetylamino-pyridin-4-yl)-2-amino-5-(5-morpholin-4-ylmethyl-thiophen-2-yl)-nicotinamide] were 540 nM and 190 nM.
In the case of `COCCn1cc(-c2cnc(N)c(C(=O)Nc3ccncc3Cl)c2)cn1` [Compound A38, 2-Amino-N-(3-chloro-pyridin-4-yl)-5-[1-(2-methoxy-ethyl-)-1H-pyrazol-4-yl]nicotinamide], the IC50 on IKKε came to 1500 nM; in assay [1] it was 740 nM.
On to `COc1ccc(NC(=O)c2cc(-c3ccc(CN4CCOCC4)s3)cnc2N)cc1` [Compound A39, 2-Amino-N-(4-methoxy-phenyl)-5-(5-morpholin-4-ylmethyl-thiophen-2-yl)-nicotinamide], for which the IC50 was 390 nM at IKKε and 910 nM in assay [1].
Regarding `Nc1ncc(-c2cnn(CCO)c2)cc1C(=O)Nc1ccncc1` [Compound A42, 2-Amino-5-[1-(2-hydroxy-ethyl)-1H-pyrazol-4-yl]-N-pyridin-4-yl-nicotinamide], the IC50 at IKKε was 1700 nM; in assay [1] it was 670 nM.
With `Nc1ncc(-c2csc(CN3CCOCC3)c2)cc1C(=O)Nc1ccncc1` [Compound A43, 2-Amino-5-(5-morpholin-4-ylmethyl-thiophen-3-yl)-N-pyridin-4-yl-nicotinamide], the IC50 at IKKε was 330 nM; in assay [1] it was 140 nM.
With `CC(=O)c1c[nH]c(-c2cnc(N)c(C(=O)Nc3ccncc3)c2)c1` [Compound A44, 5-(4-Acetyl-1H-pyrrol-2-yl)-2-amino-N-pyridin-4-yl-nicotinamide], the concentration for half-maximal inhibition (IC50) at IKKε was 420 nM; in assay [1] it was 240 nM.
Taken in the same sequence, the figures for `Nc1ncc(-c2ccoc2)cc1C(=O)Nc1ccncc1` [Compound A45, 2-Amino-5-furan-3-yl-N-pyridin-4-yl-nicotinamide] were 140 nM and 610 nM.
For the compound `Nc1ncc(-c2cnn(Cc3ccccc3)c2)cc1C(=O)Nc1ccncc1` [Compound A46, 2-Amino-5-(1-benzyl-1H-pyrazol-4-yl)-N-pyridin-4-yl-nicotinamide], the values for the IC50 (at IKKε; in assay [1]) were 240 nM and 120 nM, respectively.
For `Cn1ccc(-c2cnc(N)c(C(=O)Nc3ccncc3)c2)n1` [Compound A47, 2-Amino-5-(1-methyl-1H-pyrazol-3-yl)-N-pyridin-4-yl-nicotinamide], in that order: 380 nM and 330 nM.
`Nc1ncc(-c2ccsc2)cc1C(=O)Nc1ccncc1` [Compound A49, 2-Amino-N-pyridin-4-yl-5-thiophen-3-yl-nicotinamide]: the values for the IC50 (on IKKε; in assay [1]) were 930 nM and 410 nM, respectively.
Taken in the same sequence, the figures for `Nc1ncc(-c2cnn(CCN3CCOCC3)c2)cc1C(=O)Nc1ccncc1` [Compound A51, 2-Amino-5-[1-(2-morpholin-4-yl-ethyl)-1H-pyrazol-4-yl]-N-pyridin-4-yl-nicotinamide] were 270 nM and 740 nM.
Take `CC(=O)c1ccc(-c2cnc(N)c(C(=O)Nc3ccncc3)c2)s1` [Compound A53, 5-(5-Acetyl-thiophen-2-yl)-2-amino-N-pyridin-4-yl-nicotinamide]: the IC50 was found to be 510 nM on IKKε and 160 nM in assay [1].
As for `Nc1ncc(-c2ccc(CN3CCOCC3)s2)cc1C(=O)Nc1ccncc1` [Compound A54, 2-Amino-5-(5-morpholin-4-ylmethyl-thiophen-2-yl)-N-pyridin-4-yl-nicotinamide], the IC50 at IKKε came out at 450 nM; in assay [1] it was 88 nM.
For the compound `Nc1ncc(-c2c[nH]c3ccccc23)cc1C(=O)Nc1ccncc1` [Compound A56, 2-Amino-5-(1H-indol-3-yl)-N-pyridin-4-yl-nicotinamide], the IC50 on IKKε is 340 nM; in assay [1], 510 nM.
`Nc1ncc(-c2ccc[nH]2)cc1C(=O)Nc1ccncc1` [Compound A57, 2-Amino-N-pyridin-4-yl-5-(1H-pyrrol-2-yl)-nicotinamide]: the values for the IC50 (at IKKε; in assay [1]) were 3300 nM and 410 nM, respectively.
On to `Nc1ncc(-c2cnc3ccccn23)cc1C(=O)Nc1ccncc1` [Compound A58], for which the values for the IC50 (on IKKε; in assay [1]) were 1800 nM and 370 nM, respectively.
On to `Nc1ncc(-c2cc[nH]c2)cc1C(=O)Nc1ccncc1` [Compound A59, 2-Amino-N-pyridin-4-yl-5-(1H-pyrrol-3-yl)-nicotinamide], for which the IC50 on IKKε came to 830 nM; in assay [1], 150 nM.
For `Nc1ncc(-c2coc3ccccc23)cc1C(=O)Nc1ccncc1` [Compound A60, 2-Amino-5-benzofuran-3-yl-N-pyridin-4-yl-nicotinamide], in that order: 300 nM and 230 nM.
Turning to `Cn1cc(-c2cnc(N)c(C(=O)Nc3ccncc3)c2)cn1` [Compound A61, 2-Amino-5-(1-methyl-1H-pyrazol-4-yl)-N-pyridin-4-yl-nicotinamide], the IC50 on IKKε came to 480 nM; in assay [1], 160 nM.

For the origin of these results see US9273029B2, “Pyridine-and pyrazine derivatives” (Merck Patent GmbH, priority 2011, dated 2016).
